Assay results published in patent US11058700B2, “Macrocyclic lactones and uses thereof as modulators of purinergic receptors” (City of Hope, priority 2015, dated 2021).

Legend:
[1] = test system: Caspase-1, Caspase-3 and PARP in 4T1.2 and MDA-MB-231 cells; assay: Caspase activation and PARP cleavage; assay type: cell-based, mouse, human; conditions: 32 μM, 4 h
Description: FIGS. 1A-1H. Ivermectin kills breast cancer cells through a mixed apoptotic and necrotic mechanism. FIG. 1A: Mouse (4T1.2) and human (MDA-MB-231) TNBC cells manifest similar sensitivity to Ivermectin. Viability of cells treated with various doses of Ivermectin for 24 h. FIG. 1B: Extended exposure time reduces IC50 values to as low as 2 μM. 4T1.2 cells were seeded at 100 cells/well and individual colonies were counted after a week. Cancer cells were exposed to Ivermectin during the initial 24 h or during the entire duration of the assay. FIG. 1C: MDA-MB-231 breast cancer cells manifest higher sensitivity to Ivermectin compared to normal non-transformed human foreskin fibroblasts (HFFs). FIG. 1D: Flow cytometry analysis showing that cell death proceeds through two distinct pathways: a directly necrotic 7AAD-single positive or Annexin V/PS-single positive apoptotic pathway. FIG. 1E: Kinetics of necrotic versus apoptotic killing of 4T1.2 breast cancer cells. FIG. 1F: Ivermectin-induced cell death can be reversed by inhibition of various controlled cell death pathways. 4T1.2 cells were treated for 4 h with 32 μM Ivermectin in the presence of μM concentrations of Z-vad-fmk, Necrostatin-1, Digoxin, or VX-765, as indicated. […]
Caspase activation and PARP cleavage. […] PARP cleavage was analyzed after fixing the cells (eBioscience, Cat #00-5123 and Cat #00-5223) for 30 min at RT. […]

[2] = test system: 4T1.2 cancer cells; assay: Synergy between Ivermectin and ROS (CompuSyn CI); assay type: cell-based, mouse; conditions: for CompuSyn CI values: 4T1.2, 24 h/48 h
Description: FIGS. 2A-2C. Role of NADPH oxidases-generated ROS. […] 4T1.2 cells were labeled with a ROS detection probe and treated for 1 h with 32 μM Ivermectin in the presence of 1 mM EDTA, 5mM NAC, 5 μM DPI, 2500 μunits/ml Apyrase, 3 mM ATP, and 10 μM KN-62. […] Triangles (▴) indicate significant antagonism CI>1.0. […] 4T1.2 cancer cells were irradiated (10-20 kRad) or treated with H2O2 (10-1000 μM), PTX (0.1-1 μM), or DOX (1-4 μM) and incubated with Ivermectin for 24 h/48 h. Circles (●) indicate significant synergy CI<1.0, see Table 1. Asterisk (*) indicates p<0.05 relative to untreated or Ivermectin alone controls, respectively.
Cell viability. Cancer cells were plated on 96 well flat-bottom plates and allowed to attach overnight. Cells were then pre-incubated with drugs for 1 h and treated with Ivermectin for 4 h. In the case of 24 h and 48 h incubations the cells, Ivermectin and drugs were plated together. […] Following treatment the plates were washed once with PBS and cell viability was measured using the acid phosphatase assay. Briefly, cells were incubated for 1h at 37° C. in 100 μL assay buffer (0.16 M sodium acetate, 0.1% Triton-X-100, supplemented with 4-Nitrophenyl phosphate disodium salt hexahydrate, Sigma Aldrich, at 0.00263 g/ml). Reaction was stopped using 10 μL of 1N sodium hydroxide. Absorption at 405 nm was measured within 10 min using a multi-well plate reader. Mode of cell death and viability of cells in suspension was evaluated using flow cytometry. Briefly, cancer cells were pre-incubated with drugs for 30 min to 1 h, as indicated, treated with Ivermectin for 4 h in 5 ml FACS tubes , washed twice in PBS and stained with PE-conjugated Annexin V and 7AAD (1 μl per 100 μl/200,000 cancer cells) for 15 min.

[3] = test system: 4T1.2 breast cancer cells; assay: Plasma membrane polarization; assay type: cell-based; conditions: mouse 4T1.2 cells
Description: Plasma membrane polarization. Cancer cells in suspension were treated with various doses of Ivermectin in the presence of 0.5 μM DiBAC4 (3) (Sigma D8189). Treatments were performed in serum free RPMI medium and cells were analyzed by flow cytometry after 1h of incubation. De-/hyper-polarization results in increased/decreased fluorescence in the GFP channel, respectively.

[4] = test system: murine and human TNBC cells; assay: HMGB1 and LDH Release; assay type: cell-based, mouse
Description: FIGS. 6A-6E. Ivermectin induces autophagy. FIG. 6A: Ivermectin induces autophagy in breast cancer cells. MDA-MB-231 GFL-LC3 cells were treated with different doses of Ivermectin for 24 h and formation of green fluorescent puncta was evaluated by confocal fluorescence microscopy. FIG. 6B: Western blot confirming the induction of autophagy in both murine and human breast cancer cells, as evidenced by LC3 lipidation and autophagic degradation of p62(SQSTM1). […] MDA-MB-231 cells (triplicates) were treated with different doses of Ivermectin for up to 24h and surface stained with antibody-specific for the human M6P receptor versus isotype control. Similarly, 4T1.2 and MB231 cells were treated with different doses of Ivermectin for 4-24 h, and were stained with an antibody specific for both human and mouse CRT versus isotype control. Mean fluorescent intensity (MFI) values and ratios versus isotype control were calculated after gating on live/membrane-intact cells. FIG. 6D: Ivermectin (32 μM) induces release of HMGB1 from murine and human TNBC cells (triplicates). […] Asterisk (*) indicates p<0.05 relative to untreated or Ivermectin alone controls, respectively.
HMGB1 and LDH Release. HMGB1 and LDH release were evaluated using an HMGB1 detection kit (IBL International, ST51011) and the CYTOTOX96® Non Radioactive Cytotoxicity Assay (Promega, G1780),following manufacturers' instructions.

Question: What does the source list for `CC[C@H](C)[C@H]1O[C@]2(CC[C@@H]1C)C[C@@H]1C[C@@H](C/C=C(\C)[C@@H](O[C@H]3C[C@H](OC)[C@@H](O[C@H]4C[C@H](OC)[C@@H](O)[C@H](C)O4)[C@H](C)O3)[C@@H](C)/C=C/C=C3\CO[C@@H]4[C@H](O)C(C)=C[C@@H](C(=O)O1)[C@]34O)O2` [Ivermectin]?
Answer: PARP cleavage [1]: rapid cleavage of PARP; caspase activation [1]: potent caspase-1 and caspase-3 activation; synergy with irradiation, H2O2-generated ROS, doxorubicin and paclitaxel ([2]; 4T1.2 cells): synergistic; CompuSyn CI values ([2]; kRad 15 + Ivermectin 4): .16; CompuSyn CI values ([2]; kRad 15 + Ivermectin 8): .75; CompuSyn CI values ([2]; kRad 20 + Ivermectin 4): .94; CompuSyn CI values ([2]; kRad 20 + Ivermectin 8): .63; plasma membrane polarization [3]: plasma membrane hyper-polarization; HMGB1 release ([4]; 32 μM): potent inducer of HMGB1 release; LDH release ([4]; normalized to maximum release (lysis)): induces release of cytosolic LDH
